Results as given in patent publication US11230570B2, “Peptide for regulating reactivity to serotonin reuptake inhibitor based antidepressant, and use thereof” (DAEGU GYEONGBUK INSTITUTE OF SCIENCE AND TECHNOLOGY, priority 2018, dated 2022).
Structures can show the parent of a compound that is named as a salt. No end group written: not given here.

How the values were obtained:
[1] = target: T1, p11/AnxA2/SMARCA3 complex (Homo sapiens, UniProt P07355+P60903); assay: Immunoprecipitation of p11/AnxA2/SMARCA3 complex in HEK293 cells; type: binding; details: in vitro immunoprecipitation with α-SMARCA3, HEK293 cells
T1 construct: endogenous in cells; host or cells: HEK293 (CRL-1573, ATCC)
T1 sequence (P60903 whole entry): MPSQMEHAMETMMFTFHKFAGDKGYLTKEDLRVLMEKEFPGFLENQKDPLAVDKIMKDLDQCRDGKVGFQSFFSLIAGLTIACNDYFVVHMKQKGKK
T1 sequence (P07355 2-339 limits assumed): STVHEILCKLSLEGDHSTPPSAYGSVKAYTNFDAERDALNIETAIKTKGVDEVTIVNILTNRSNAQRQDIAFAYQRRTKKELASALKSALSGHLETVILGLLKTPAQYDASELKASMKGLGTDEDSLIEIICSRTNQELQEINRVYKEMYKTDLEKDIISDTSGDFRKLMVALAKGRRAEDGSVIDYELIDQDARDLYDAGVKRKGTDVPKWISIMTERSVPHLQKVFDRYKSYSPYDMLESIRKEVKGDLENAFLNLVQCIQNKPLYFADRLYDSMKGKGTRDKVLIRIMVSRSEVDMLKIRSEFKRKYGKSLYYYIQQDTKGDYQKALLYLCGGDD
Protocol: 1-4. Immunoprecipitation of p11/AnxA2/SMARCA3 Complex
HEK293 cells (CRL-1573, ATCC) were transfected with a CMV-Cre plasmid, and 24 hours after transfection, transfected with an AAV vector expressing the control AcGFP1 or PASIP-AcGFP1 construct. Immunoprecipitation was performed with α-SMARCA3 antibodies (rabbit polyclonal antibodies prepared with immunized peptides). Immunoblotting was performed using the following antibodies according to a standard protocol: α-p11 (mouse monoclonal, 1:1000, BD Biosciences), α-p11 (goat polyclonal, 1:200, R&D Systems), α-SMARCA3 (goat polyclonal, 1:200, NOVUS), α-AnxA2 (mouse monoclonal, Santa Cruz Biotech.), α-GFP (goat polyclonal, Santa Cruz Biotech).

mice [2] = assay: Novelty suppressed feeding test (NSF/NFS); type: in vivo, mouse; details: in s (unit assumed); for NSF test latency: CNO 0.3 mg/kg
Protocol: For chronic drug administration, 2 to 5 mice were housed in each cage. Fluoxetine hydrochloride (Spectrum Chemicals, USA) was intraperitoneally injected (10 mg kg-1 day-1) daily for 3 weeks. The drug was prepared by being dissolved in dimethyl sulfoxide (50%), and diluted with saline. For a control, a drug-free vehicle solution (0.9% saline) was administered daily. For a Gi-DREADD mouse experiment, clozapine-N-oxide (CNO; Sigma-Aldrich, USA) was directly dissolved in a 0.9% saline solution. A dose of CNO was 0.3 mg/kg, and 2 hours before each behavioral test, 100 μl/10 g of a solution per body weight was intraperitoneally injected.
(4) Novelty Suppressed Feeding Test (NSF)
(§1) The test was carried out for 15 minutes by partially changing a conventional method. 24 hours before behavioral testing, all food provided to the home cage was removed. […], a single 1.8-cm square-shaped food pellet was placed on a white filter paper positioned in the center of the test box. The mouse was placed in the corner of an open field, and a stopwatch was immediately operated. The latency to first bite food was recorded. Immediately after the test, the mice were placed in the home cage, and the amount of food intake was measured for 10 minutes.

mossy cells = assay: Electrophysiological recording of hippocampal mossy cells in brain slices; type: cell-based, mouse; details: for activity of mossy cells: CNO perfused on slices
From the text: Electrophysiological Evaluation of Hippocampal Mossy Cells […] To label and visualize mossy cells in hippocampal slices, a recombinant AAV vector (AAV2.EF1α.DIO.AcGFP1-myc) was bilaterally injected into the dentate hilus of the ventral hippocampus in […]. AcGFP1 was selectively expressed in the mossy cells. While recording the electrophysiological evaluation, the morphology, membrane capacitance and electrophysiological properties of the mossy cells were further confirmed. (2) Preparation of Slices 12-15-week male mice were euthanized with CO2. Subsequently, their brains were extracted and placed in an N-Methyl-D-glucamine-containing cutting solution (93 mM NMDG, 2.5 mM KCl, 1.2 mM NaH2PO4, 30 mM NaHCO3, 25 mM glucose, 20 mM HEPES, 5 mM sodium ascorbate, 3 mM sodium pyruvate, 2 mM thiourea, 0.5 mM CaCl2), 10 mM MgSO4. pH 7.4, 295-305 mM mOsm) on cold ice. The brain tissue slices (400-μm thickness) containing the ventral hippocampus were prepared using a VT1000 S Vibratome (Leica Microsystems Inc., Buffalo Grove, Ill., USA). After cutting, slices were allowed to recover in the cutting solution at 37° C. for 15 minutes, and then transferred to a recording solution at room temperature for at least 1 hour before recording of the electrophysiological evaluation. (3) Electrophysiological Recording Electrophysiological recordings were performed as described above. During recording, brain slices were placed in a perfusion chamber attached to a fixed stage of an upright microscope BX51WI (Olympus, Tokyo, Japan), and immersed in a continuously flowing oxygenated recording solution. Components contained in the solution are as follows: 125 mM NaCl, 25 mM NaHCO3, 25 mM glucose, 2.5 mM KCl, 1.25 mM NaH2PO4, 2 mM CaCl2) and 1 mM MgCl2, pH 7.4, 295-305 mM mOsm. Neurons were visualized with a 40× water immersion lens using near infrared (IR) light. Electrophysiological recording was performed using a Multiclamp 700B/Digidata 1440A system (Molecular Devices, Sunnyvale, Calif., USA). Patch electrodes were filled with an internal solution (126 mM K-gluconate, 10 mM KCl, 10 mM HEPES, 10 mM phosphocreatine, 4 mM ATP and 0.3 mM GTP, pH 7.3, 290 mM mOsmol). Whole-cell patch-clamp recordings were used to record spontaneous action potentials of mossy cells in the hippocampal slides, and all recording was performed at 37° C. […] In addition, CNO (1 mM) was perfused on the brain tissue slices to confirm the effect of Gi-DREADD. Experimental data was analyzed by pClamp10 software (Molecular Devices) and GraphPad Prism 6 (GraphPad Software, La Jolla, Calif., USA).

[3] = system: BrdU+ proliferating cells in the subgranular zone of the dentate gyrus; assay: BrdU labeling and neurogenic analysis; type: in vivo, mouse
Protocol: 1-8. BrdU Labeling and Neurogenic Analysis
Before the mice were sacrificed, a BrdU solution (200 mg/kg) was intraperitoneally administered for 3 hours. After transcardial perfusion, brain tissue was fixed with 4% PFA overnight, coronal sections with a 40-μm thickness were collected along the hippocampal rostro-caudal axis using a cryostat (CM3050S, Leica). The sections were processed using a free-floating method. Every sixth section throughout the hippocampus was subjected to BrdU immunohistochemical staining. Afterward, sections were pre-incubated with 1M HCl at 45° C. for 30 minutes to denature DNA, and washed three times with 0.1M PBS for neutralization. Immunohistochemistry was performed with α-BrdU (rat polyclonal, 1:200, Abcam, Cambridge, Mass., USA) and Alexa-Fluor™-conjugated secondary antibodies (1:400, Life Technologies, USA). A tester who was not given information on a slide code counted BrdU-labeled cells in the granule cell layer (GCL) and the subgranular zone (SGZ) of the dentate gyrus (DG) in the total of 12 sections derived from individual mice. The total number of BrdU-labeled cells per section was determined and multiplied by 6 to obtain the total number of cells per dentate gyrus.

mice [4] = assay: Home cage feeding (HCF) test; type: in vivo, mouse; details: for home cage feeding level: control AcGFP1 and PASIP-AcGFP1 mice, chronic fluoxetine
Protocol: as §1

mice [5] = assay: Light and dark box test; type: in vivo, mouse; details: PASIP-AcGFP1 mice vs control AcGFP1 154±16; p<0.01
Protocol: (3) Light and Dark Box Test (LD Box)
Mice were placed in an open field area (40×40×40 cm). A black box was inserted into the open field. The mice were placed into light compartments at the beginning of a session, and allowed to freely move between the compartments for 10 minutes. The time spent in each compartment and the latency to first enter the dark compartment were measured using automated Superflex™ software.

mice [6] = assay: Tail suspension test (TST); type: in vivo, mouse; details: for inactivity (immobility) in TST: in s (unit assumed)
Protocol: (5) Tail Suspension Test (TST) Mice were suspended by tails for 6 minutes. A test session was videotaped, and their immobility was scored using automated TST analysis software of Clever System (Reston, Va., USA). The immobility time during the last 4 minutes (excluding the initial 2 minutes) was calculated.

[7] = system: newborn postmitotic cells (DCX); assay: Doublecortin (DCX) immunostaining of immature neurons; type: in vivo, mouse; details: chronic fluoxetine administration, control mice
Protocol: 1-7. Immunohistochemistry
Immunostaining was carried out using the standard free-floating method. Sections were washed three times with PBS for 10 minutes each time, and incubated with 2% normal donkey serum, 0.2% bovine serum albumin and 0.3% Triton-X100. After blocking, the sections were incubated with primary antibodies diluted with a blocking buffer overnight at 4° C., the following primary antibodies were used: α-doublecortin (goat polyclonal, 1:200, Santa Cruz Biotech.), α-calretinin (mouse monoclonal, 1:500, SWANT), α-parvalbumin (rabbit polyclonal, 1:1000, SWANT), α-neuropeptide Y (rabbit polyclonal, 1:1000, Phoenix Pharmaceutical), α-GluR2/3 (rabbit polyclonal, 1:100, Millipore). After incubation for 24 hours, the sections were washed three times with PBS containing 0.2% Triton-X100 (PBS-T) for 10 minutes, and then incubated with Alexa-Fluor™-conjugated secondary antibodies (1:400, Life Technologies, USA) at room temperature for 3 hours. The sections were washed three times with PBS-T at room temperature for 10 minutes, and covered with a Prolong™ Gold, anti-fading mounting medium (Life Technologies, USA).

With “PASIP-AcGFP1: p11/AnxA2/SMARCA3 complex inhibitory peptide-AcGFP1 fusion construct, expressed from a Cre-dependent AAV vector (GNGNGKVTFPKMKIPKFSGR; also: fused to AcGFP1)” the “assembly of the p11/AnxA2/SMARCA3 complex” value [1] was “able to block the assembly of the p11/AnxA2/SMARCA3 complex”, the latency to feed (mice [2]; PASIP-AcGFP1 mice, SAL) was 304±51 and the latency to feed (mice [2]; PASIP-AcGFP1 mice, chronic FLX) was 293±54. For the same compound, the “firing rate of mossy cells” value (mossy cells; mossy cells expressing construct (control AcGFP1 3.58±0.56 Hz)) was 0.64±0.10 Hz, the “resting membrane potential in mossy cells” value (mossy cells; mossy cells expressing construct (control AcGFP1 −47.33±1.77 mV)) was −54.33±1.32 mV and the “BrdU+ proliferating cells” value ([3]; PASIP-AcGFP1 mice (AAV, mossy cells), SAL) was 119±27. The “BrdU+ proliferating cells” value ([3]; PASIP-AcGFP1 mice (AAV, mossy cells), chronic FLX) was 129±13, the “home cage feeding level” value (mice [4]) was “did not have a significant influence” and the light/dark box test (mice [5]) was 94±13. The “effect of fluoxetine in tail-suspension test” value (mice [6]; PASIP-AcGFP1 mice, chronic fluoxetine) was “reduced an effect caused by fluoxetine administration”.
In the case of `C[N+]1([O-])CCN(C2=Nc3cc(Cl)ccc3Nc3ccccc32)CC1` [CNO, clozapine-N-oxide], the “activity of mossy cells” value (mossy cells; Gi-DREADD mice, mCherry-labeled mossy cells) is reported as “silenced” and the “activity of mossy cells” value (mossy cells; control mCherry mice) is reported as “not in control mice”.
In the case of `CNCCC(Oc1ccc(C(F)(F)F)cc1)c1ccccc1` (stereo not shown) [FLX, Fluoxetine hydrochloride], the NSF test latency (mice [2]; Gi-DREADD mice, chronic FLX (SAL 450±36)) is reported as 365±40, the “latency to access a food pellet” value (mice [2]; Smarca3f/f control mice (D2-Cre experiment), chronic FLX (SAL 257±47)) is reported as 104±12 and the “latency to access a food pellet” value (mice [2]; Smarca3f/f control mice (MC-Cre experiment), chronic FLX (SAL 338±20)) is reported as 229±40. The “latency to access a food pellet” value (mice [2]; Smarca3f/f;D2-Cre conditional knockout mice, chronic FLX (SAL 192±15)) was 232±32, the “latency to access a food pellet” value (mice [2]; Smarca3f/f;MC-Cre conditional knockout mice, chronic FLX (SAL 405±88)) was 404±69 and the NSF test latency (mice [2]; control (mCherry) mice, chronic FLX (SAL 484±85)) was 238±40. The latency to feed (mice [2]; control AcGFP1 mice, chronic fluoxetine (SAL 296±48)) was 147±22, the “latency to access a food pellet” value (mice [2]; p11f/f control mice, chronic FLX 10 mg/kg/day i.p. 3 weeks (SAL 351±38)) was 165±24 and the “latency to access a food pellet” value (mice [2]; p11f/f;D2-Cre conditional knockout mice, chronic FLX (SAL 364±46)) was 296±58. For the same compound, the “survival and differentiation of newborn neuronal progenitors (DCX expression)” value [7] was “enhanced the survival of newborn neuronal progenitors and promoted differentiation into mature neurons”, the “mossy cell activity (spontaneous firing rate)” value (mossy cells; acute fluoxetine treatment) was “had no effect on mossy cell activity” and the “spontaneous firing rate of mossy cells” value (mossy cells; chronic fluoxetine treatment (control 2.36±0.41 Hz)) was 4.19±0.92 Hz. The “number of BrdU+ proliferating cells in the subgranular zone” value ([3]; Gi-DREADD mice, chronic FLX (SAL 172±27)) was 232±20, the “number of BrdU+ proliferating cells in the subgranular zone” value ([3]; control (mCherry) D2-Cre mice, chronic FLX (SAL 177±18)) was 337±37 and the “BrdU+ proliferating cells” value ([3]; control mice, chronic fluoxetine (SAL 173±16)) was 290±43. The “home cage feeding level” value (mice [4]) was “did not have a significant influence”, the “food intake after coming back to the home cage” value (mice [4]; control and p11 / Smarca3 cKO mice, chronic SSRI) was “no change in food intake” and the “inactivity (immobility) in TST” value (mice [6]; Gi-DREADD mice, chronic FLX (SAL 128±9)) was 129±10. For the same compound, the “inactivity (immobility) in TST” value (mice [6]; control (mCherry) mice, chronic FLX (SAL 141±9)) was 110±9.
